# Laboratory results taken from US20120220662A1, “PHYTOCEUTICAL COMPOSITIONS FOR PETS” (BIOKAB, S.A. DE C.V., priority 2009, published 2012).
# Assay: Accelerated Oxidization Tests (anti-oxidizing ability, peroxides)
# Settings: 200 ppm (extract: Nejayote 1000 ppm + 200 ppm Pure Ferulic Acid)
# Description: The tests of anti-oxidizing ability of the compositions in examples 1, 2 and 3. Said anti-oxidizing ability is the ability which conveys, to a considerable extent, the phytoceutical properties of our composition.
# The determination was performed by AOAC Official Method 965.33/(AOCS Method Cd 8-53) 2000 AOAC International.
SMILES,Accelerated Oxidization Tests (peroxides) (Time 0 Hs),Accelerated Oxidization Tests (peroxides) (Time 4 Hs),Accelerated Oxidization Tests (peroxides) (Time 8 Hs),Accelerated Oxidization Tests (peroxides) (Time 16 Hs),Accelerated Oxidization Tests (peroxides) (Time 24 Hs),Accelerated Oxidization Tests (peroxides) (Time 32 Hs),Accelerated Oxidization Tests (peroxides) (Time 40 Hs),Accelerated Oxidization Tests (peroxides) (Time 48 Hs),Accelerated Oxidization Tests (peroxides) (Time 56 Hs),Accelerated Oxidization Tests (peroxides) (Time 64 Hs),Accelerated Oxidization Tests (peroxides) (Time 72 Hs),Accelerated Oxidization Tests (peroxides) (Time 80 Hs),Accelerated Oxidization Tests (peroxides) (Time 88 Hs),Accelerated Oxidization Tests (peroxides) (Time 96 Hs),Accelerated Oxidization Tests (peroxides) (Time 104 Hs),Accelerated Oxidization Tests (peroxides) (Time 112 Hs),Accelerated Oxidization Tests (peroxides) (Time 120 Hs),Accelerated Oxidization Tests (peroxides) (Time 128 Hs)
"COc1cc(/C=C/C(=O)O)ccc1O [Pure Ferulic Acid, ferulic acid]",0.00 Meq/Kg,0.00 Meq/Kg,0.00 Meq/Kg,0.00 Meq/Kg,0.00 Meq/Kg,3.17 Meq/Kg,4.19 Meq/Kg,7.25 Meq/Kg,13.61 Meq/Kg,20.18 Meq/Kg,21.12 Meq/Kg,24.19 Meq/Kg,31.16 Meq/Kg,36.19 Meq/Kg,51.14 Meq/Kg,31.05 Meq/Kg,21.05 Meq/Kg,0.00 Meq/Kg
"COc1ccc(O)c(C(C)(C)C)c1 [pure BHA, Butylated Hydroxy Anisole]",0.00 Meq/Kg,0.00 Meq/Kg,0.00 Meq/Kg,0.00 Meq/Kg,0.00 Meq/Kg,0.00 Meq/Kg,0.00 Meq/Kg,0.60 Meq/Kg,0.68 Meq/Kg,1.09 Meq/Kg,0.91 Meq/Kg,1.89 Meq/Kg,8.03 Meq/Kg,41.94 Meq/Kg,45.11 Meq/Kg,36.12 Meq/Kg,24.10 Meq/Kg,6.16 Meq/Kg
